Assay results published in ChEMBL document CHEMBL5614413, “Design, synthesis and biological evaluation of amphiphilic benzopyran derivatives as potent antibacterial agents against multidrug-resistant bacteria” (Eur J Med Chem, 2024).
In brackets after ≈: the same amount, converted by molar mass. Activity calls are given as the source filed them. The calls are words filed in the database; no cut-off is given here.

Experiments:
[1] = tested on: Staphylococcus aureus; experiment: (§1) Antibacterial activity against methicillin-resistant Staphylococcus aureus ATCC 43300 infected in sepsis mouse model assessed as decrease in IL-6 level in blood at 5 to 10 mg/kg pre-infected with bacteria for 1 hrs followed by continuous compound administration at 12 hrs intervals for 2 days; assay type: functional, organism-based; conditions: dose 5-10 mg/kg, time 2.0 day
[2] = tested on: Staphylococcus aureus; experiment: Antibacterial activity against methicillin-resistant Staphylococcus aureus ATCC 43300 infected in sepsis mouse model assessed as decrease in TNF-alpha level in blood at 5 to 10 mg/kg pre-infected with bacteria for 1 hrs followed by continuous compound administration at 12 hrs intervals for 2 days; assay type: functional, organism-based; conditions: dose 5-10 mg/kg, time 2.0 day
[3] = tested on: Staphylococcus aureus; experiment: Bactericidal activity against methicillin-resistant Staphylococcus aureus ATCC 43300 in presence of 50% human blood by Mueller Hinton broth based assay; assay type: functional; conditions: ATCC 43300, Blood, time <= 6 hrs
[4] = tested on: Staphylococcus aureus; experiment: Antibacterial activity against penicillin-resistant Staphylococcus aureus ATCC 31007; assay type: functional
[5] = tested on: Staphylococcus aureus; experiment: Antibacterial activity against methicillin-resistant Staphylococcus aureus ATCC 43300; assay type: functional
[6] = tested on: Enterococcus faecalis; experiment: Antibacterial activity against vancomycin-susceptible Enterococcus faecalis ATCC 29212; assay type: functional
[7] = tested on: Acinetobacter baumannii; experiment: Antibacterial activity against Acinetobacter baumannii ATCC 19606; assay type: functional
[8] = tested on: Escherichia coli; experiment: Antibacterial activity against penicillin-susceptible Escherichia coli ATCC 25922; assay type: functional
[9] = Hemolytic activity in sheep RBC; assay type: toxicity, cell-based, Ovis aries, Erythrocyte; conditions: sheep red blood cells (erythrocytes)
[10] = Selectivity index, ratio of HC50 for hemolytic activity in sheep RBC to MIC for antibacterial activity against methicillin-resistant Staphylococcus aureus ATCC 43300; assay type: toxicity; conditions: sheep red blood cells (erythrocytes), read-out: Selectivity Index
[11] = tested on: Staphylococcus aureus; experiment: Selectivity ratio of MBC for bactericidal activity against methicillin-resistant Staphylococcus aureus ATCC 43300 preincubated with 50% human plasma upto 6 hrs to MBC for bactericidal activity against methicillin-resistant Staphylococcus aureus ATCC 43300; assay type: functional
[12] = tested on: Staphylococcus aureus; experiment: Bactericidal activity against methicillin-resistant Staphylococcus aureus ATCC 43300 in presence of 50% human serum by Mueller Hinton broth based assay; assay type: functional
[13] = tested on: Staphylococcus aureus; experiment: Bactericidal activity against methicillin-resistant Staphylococcus aureus ATCC 43300 by Mueller Hinton broth based assay; assay type: functional; conditions: time <= 6 hrs
[14] = tested on: Staphylococcus aureus; experiment: Antibacterial activity against methicillin-resistant Staphylococcus aureus ATCC 43300 at 1/2 times of MIC measured after 20 passage; assay type: functional, organism-based
[15] = tested on: Staphylococcus aureus; experiment: Inhibition of biofilm formation in methicillin-resistant Staphylococcus aureus ATCC 43300 at 2 microg/ml relative to control; assay type: functional
[16] = tested on: Staphylococcus aureus; experiment: Inhibition of biofilm formation in methicillin-resistant Staphylococcus aureus ATCC 43300 at 16 microg/ml relative to control; assay type: functional
[17] = tested on: Staphylococcus aureus; experiment: Disruption of preformed biofilm in methicillin-resistant Staphylococcus aureus ATCC 43300 assessed as eradication of biofilm at 8 microg/ml by crystal violet staining based analysis relative to control; assay type: functional; conditions: dose 8 µg/ml
[18] = tested on: Cell membrane; experiment: Disruption of cell membrane in methicilin-resistant Staphylococcus aureus ATCC 43300 assessed as appearance of collapsed cell membrane by scanning electron microscopic analysis; assay type: cell membranes
[19] = tested on: Cell membrane; experiment: Disruption of cell membrane in methicillin-resistant Staphylococcus aureus ATCC 43300 assessed as appearance of broken surface by scanning electron microscopic analysis; assay type: cell membranes
[20] = tested on: Cell membrane; experiment: Disruption of cell membrane integrity in methicillin-resistant Staphylococcus aureus ATCC 43300 assessed as appearance of blue fluorescence by DAPI/PI staining based microscopic analysis; assay type: cell membranes
[21] = tested on: Cell membrane; experiment: Disruption of cell membrane integrity in methicillin-resistant Staphylococcus aureus ATCC 43300 assessed as appearance of red fluorescence by DAPI/PI staning based microscopic analysis; assay type: cell membranes
[22] = tested on: Cell membrane; experiment: Induction of cytoplasmic membrane depolarization in methicillin-resistant Staphylococcus aureus ATCC 43300 assessed as fold increase in fluorescence intensity at 16 microg/ml measured within 20 min by DiSC3(5) dye-based fluorescence assay; assay type: cell membranes; conditions: dose 16.0 µg/ml
[23] = tested on: Cell membrane; experiment: Induction of cell membrane disruption in methicillin-resistant Staphylococcus aureus ATCC 43300 assessed as increase in DNA leakage; assay type: cell membranes
[24] = tested on: Staphylococcus aureus; experiment: as §1, with “reduction” for “decrease”, “bacterial load” for “IL-6 level”, “liver” for “blood”, “5” for “5 to 10”, “days (reference value: 7.16 log10CFU/g)” for “days”; assay type: functional; conditions: time 2 day
[25] = tested on: Staphylococcus aureus; experiment: as §1, with “reduction” for “decrease”, “bacterial load” for “IL-6 level”, “spleen” for “blood”, “5” for “5 to 10”, “days (reference value: 7.45 log10CFU/g)” for “days”; assay type: functional; conditions: time 2 day
[26] = tested on: Staphylococcus aureus; experiment: as §1, with “reduction” for “decrease”, “bacterial load” for “IL-6 level”, “at” for “at 5 to”, “days (reference value: 3.69 log10CFU/ml)” for “days”; assay type: functional; conditions: time 2 day
[27] = tested on: Staphylococcus aureus; experiment: as §1, with “reduction” for “decrease”, “bacterial load” for “IL-6 level”, “liver” for “blood”, “at” for “at 5 to”, “days (reference value: 7.16 log10CFU/g)” for “days”; assay type: functional; conditions: time 2 day
[28] = tested on: Staphylococcus aureus; experiment: as §1, with “reduction” for “decrease”, “bacterial load” for “IL-6 level”, “kidney” for “blood”, “at” for “at 5 to”, “days (reference value: 6.75 log10CFU/g)” for “days”; assay type: functional; conditions: time 2 day
[29] = tested on: Staphylococcus aureus; experiment: as §1, with “reduction” for “decrease”, “number of surviving bacterial colonies” for “IL-6 level”, “5” for “5 to 10”, “days relative to control” for “days”; assay type: functional; conditions: time 2 day
[30] = tested on: Staphylococcus aureus; experiment: as §1, with “reduction” for “decrease”, “number of surviving bacterial colonies” for “IL-6 level”, “spleen” for “blood”, “5” for “5 to 10”, “days relative to control” for “days”; assay type: functional; conditions: time 2 day
[31] = tested on: Staphylococcus aureus; experiment: as §1, with “reduction” for “decrease”, “number of surviving bacterial colonies” for “IL-6 level”, “spleen” for “blood”, “at” for “at 5 to”, “days relative to control” for “days”; assay type: functional; conditions: time 2 day
[32] = tested on: Staphylococcus aureus; experiment: as §1, with “reduction” for “decrease”, “number of surviving bacterial colonies” for “IL-6 level”, “kidney” for “blood”, “at” for “at 5 to”, “days relative to control” for “days”; assay type: functional; conditions: time 2 day
[33] = tested on: Staphylococcus aureus; experiment: as §1, with “reduction” for “decrease”, “pathological damages” for “IL-6 level”, “liver” for “blood”, “days by H and E staining based analysis” for “days”; assay type: functional, organism-based; conditions: dose 5-10 mg/kg, time 2.0 day
[34] = tested on: Staphylococcus aureus; experiment: as §1, with “reduction” for “decrease”, “pathological damages” for “IL-6 level”, “kidney” for “blood”, “days by H and E staining based analysis” for “days”; assay type: functional, organism-based; conditions: dose 5-10 mg/kg, time 2.0 day
[35] = tested on: Staphylococcus aureus; experiment: Selectivity ratio of MBC for bactericidal activity against methicillin-resistant Staphylococcus aureus ATCC 43300 in presence of 50% human serum to MBC for bactericidal activity against methicillin-resistant Staphylococcus aureus ATCC 43300; assay type: functional
[36] = tested on: Staphylococcus aureus; experiment: Bacteriostatic activity against methicillin-resistant Staphylococcus aureus ATCC 43300 assessed as inhibition of bacterial growth at 1 times of MIC measured after 24 hrs by time-kill kinetic analysis; assay type: functional, organism-based
[37] = tested on: Staphylococcus aureus; experiment: Bactericidal activity against methicillin-resistant Staphylococcus aureus ATCC 43300 assessed as bacterial killing at 16 microg/ml measured after 4 hrs by time-kill kinetics analysis relative to control; assay type: functional; conditions: dose 16 µg/ml
[38] = tested on: Staphylococcus aureus; experiment: Drug resistance, ratio of MIC for methicillin-resistant Staphylococcus aureus ATCC 43300 after 20 passages to MIC for methicillin-resistant Staphylococcus aureus ATCC 43300 during first exposure; assay type: functional

With `CCCCN(CCCC)CCCNCCCOc1c(C(C)=O)ccc2c1C=CC(C)(CCC=C(C)C)O2` (stereo not drawn) as the compound, how does the Activity [1] read?
The Activity was “Active”.

What about the Activity [2] of the same compound?
The Activity was “Active”.

And the MBC [3]?
Its MBC is 32 mg/L.

What about the MIC [4] of the same compound?
The MIC was 4 mg/L (≈ 7.8 µM).

And the MIC [5]?
The MIC was 2 mg/L (≈ 3.9 µM).

What about the MIC [6] of the same compound?
The MIC was 4 mg/L (≈ 7.8 µM).

And the MIC [7]?
Its MIC is 2 mg/L (≈ 3.9 µM).

What about the MIC [8] of the same compound?
The MIC was 4 mg/L (≈ 7.8 µM).

And the HC50 [9]?
Its HC50 is 131 µg/mL.

What about the selectivity ratio [10] of the same compound?
The selectivity ratio was 65.6.

And the selectivity ratio [11]?
Its selectivity ratio is under 2.

What about the MBC [12] of the same compound?
Its MBC is 16 mg/L.

What about the MBC [13] of the same compound?
The MBC was 8 mg/L (≈ 15.6 µM).

What about the Activity [14] of the same compound?
Its Activity is “Active”.

And the inhibition at 2 µg/mL [15]?
The inhibition at 2 µg/mL was 8.46%.

And the inhibition at 16 µg/mL [16]?
The inhibition at 16 µg/mL was over 92%.

What about the Activity [17] of the same compound?
Its Activity is 26.69%.

And the Activity [18]?
The Activity was “Active”.

What about the Activity [19] of the same compound?
The Activity was “Active”.

What about the Activity [20] of the same compound?
The Activity was “Active”.

And the Activity [21]?
Its Activity is “Active”.

And the fold change (FC) [22]?
Its fold change (FC) is 15.

What about the Activity [23] of the same compound?
The Activity was “Active”.

What about the Activity [24] of the same compound?
Its Activity is 1.98 log10CFU/g.

And the Activity [25]?
The Activity was 2 log10CFU/g.

And the Activity [26]?
Its Activity is 1.46 log10CFU/ml.

And the Activity [27]?
The Activity was 2.69 log10CFU/g.

What about the Activity [28] of the same compound?
The Activity was 2.84 log10CFU/g.

And the Activity [29]?
Its Activity is 91.8%.

And the Activity [30]?
Its Activity is 99%.

And the Activity [31]?
Its Activity is 99.4%.

And the Activity [32]?
Its Activity is 99.9%.

What about the Activity [33] of the same compound?
The Activity was “Active”.

And the Activity [34]?
Its Activity is “Active”.

And the selectivity ratio [35]?
The selectivity ratio was 2.

And the Activity [36]?
The Activity was “Active”.

And the Activity [37]?
The Activity was “>=99.9%”.

And the Ratio [38]?
Its Ratio is 2.
